Test results taken from patent US20180057505A1, “BICYCLIC HETEROARYL COMPOUNDS USEFUL AS INHIBITORS OF THE PAR-2 SIGNALING PATHWAY” (VERTEX PHARMACEUTICALS INCORPORATED, priority 2015, published 2018).

Tests used:
Assay type in all cases: cell-based
PAR2 (HT-29 cells) [1] = target: T1, PAR2 (HT-29 cells) (Homo sapiens, UniProt P55085); test: Ca FLIPR TETRA assay, ANTAGONIST mode, activator 8 μM SLIGKV; details: HT-29 cells; activator 8 μM SLIGKV; Method A: maximal concentration of antagonist 0.1, 1 or 2 μM
T1 construct: host or cells: HT-29
T1 sequence (P55085 26-397): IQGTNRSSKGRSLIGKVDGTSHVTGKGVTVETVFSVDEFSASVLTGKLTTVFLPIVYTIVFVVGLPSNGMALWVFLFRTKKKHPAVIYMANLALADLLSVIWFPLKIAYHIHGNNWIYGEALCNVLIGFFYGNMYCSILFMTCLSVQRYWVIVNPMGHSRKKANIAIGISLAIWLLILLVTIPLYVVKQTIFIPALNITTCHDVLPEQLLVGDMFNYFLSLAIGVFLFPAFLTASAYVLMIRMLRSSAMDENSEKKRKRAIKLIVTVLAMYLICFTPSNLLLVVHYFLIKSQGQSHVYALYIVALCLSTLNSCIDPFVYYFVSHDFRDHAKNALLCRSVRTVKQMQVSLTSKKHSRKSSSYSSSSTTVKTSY
How it was run: (§1)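 Antagonist-mode FLIPR Tetra Ca2+ read: dye-loaded HT-29 cells preincubated 30 min at r.t. with compound (first read checks agonism alone), then challenged with final 3.1 U/mL trypsin, 8 μM SLIGKV, 1 U/mL thrombin or 0.6 μM UTP. Cells plated overnight in 1% FBS McCoy's; Calcium 5 loading 45 min 37 °C plus 15 min r.t.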

PAR2 (HT-29 cells) [2] = target: T1, PAR2 (HT-29 cells); test: Ca FLIPR TETRA assay, ANTAGONIST mode, activator 3.1 U/mL trypsin; details: HT-29 cells; activator 3.1 U/mL trypsin; Method A: maximal concentration of antagonist 0.1, 1 or 2 μM
How it was run: as §1

[3] = system: Thrombin-stimulated Ca2+ response in HT-29 cells; test: Ca FLIPR TETRA assay, ANTAGONIST mode, activator 1 U/mL Thrombin; details: Homo sapiens; HT-29 cells, activator 1 U/mL Thrombin
How it was run: as §1

[4] = system: UTP-stimulated Ca2+ response in HT-29 cells; test: Ca FLIPR TETRA assay, ANTAGONIST mode, activator 0.6 μM UTP; details: Homo sapiens; HT-29 cells, activator 0.6 μM UTP
How it was run: as §1

SMILES | IC50 (PAR2 (HT-29 cells) [1]) | IC50 (PAR2 (HT-29 cells) [2]) | IC50 [3] | IC50 [4]
CC(C)[C@@H](CC(=O)N1CCN(C(=O)c2cc3nc(-c4ccc(Cl)cc4)cc(C(C)(C)C)c3o2)C(C)(C)C1)C(=O)O [Example I-320] | 0.1 nM | 0.2 nM | > 2000 nM | > 2000 nM
CC(C)[C@@H](CC(=O)N1CCN(C(=O)c2cc3nc(-c4ccc(Cl)c(F)c4)cc(C(C)(C)C)c3o2)C(C)(C)C1)C(=O)O [Example I-321] | 0.1 nM | 0.1 nM | > 2000 nM | > 2000 nM
CC(C)(C)c1cc(-c2ccc(Cl)cc2)nc2cc(C(=O)N3CCC(=O)NCC3(C)C)oc12 [Example I-322] | 92 nM | 240 nM | > 2000 nM | > 2000 nM
CC(C)(C)c1cc(-c2ccc(Cl)cc2)nc2cc(C(=O)N3CCNC(=O)CC3(C)C)oc12 [Example I-323] | 12 nM | 18 nM | > 2000 nM | > 2000 nM
CC(C)(C)c1cc(-c2ccc(Cl)c(F)c2)nc2cc(C(=O)N3CCN(C(=O)CC4(C(=O)O)CCCC4)CC3(C)C)oc12 [Example I-324] | 0.2 nM | 0.4 nM | > 2000 nM | > 2000 nM
CC(C)(C)c1cc(-c2ccc(Cl)c(F)c2)nc2cc(C(=O)N3CCN(c4cccnc4)C(=O)C3(C)C)oc12 [Example I-325] | 20 nM | 20 nM | > 2000 nM | > 2000 nM
CC(C)(C)c1cc(-c2ccc(Cl)cc2)nc2cc(C(=O)N3CCN(c4cccnc4)C(=O)C3(C)C)oc12 [Example I-326] | 23 nM | 38 nM | > 2000 nM | > 2000 nM
CC(C)(C)c1cc(-c2ccc(Cl)c(F)c2)nc2cc(C(=O)N3CCN(c4ccncc4)C(=O)C3(C)C)oc12 [Example I-327] | 10 nM | 12 nM | > 2000 nM | > 2000 nM
CC(C)(C)c1cc(-c2ccc(Cl)cc2)nc2cc(C(=O)N3CCN(c4ccncc4)C(=O)C3(C)C)oc12 [Example I-328] | 16 nM | 22 nM | > 2000 nM | > 2000 nM
CC(C)(C)c1cc(-c2ccc(Cl)c(F)c2)nc2cc(C(=O)N3CCN(c4ccccn4)C(=O)C3(C)C)oc12 [Example I-329] | 12 nM | 13 nM | > 2000 nM | > 2000 nM
CC(C)(C)c1cc(-c2ccc(Cl)cc2)nc2cc(C(=O)N3CCN(c4ccccn4)C(=O)C3(C)C)oc12 [Example I-330] | 21 nM | 32 nM | > 2000 nM | > 2000 nM
CC(C)(C)c1cc(-c2ccc(Cl)c(F)c2)nc2cc(C(=O)N3CCN(c4ncc(-c5nnn[nH]5)cn4)CC3(C)C)oc12 [Example I-331] | 1.3 nM | 2.8 nM | 1800 nM | > 2000 nM
CC(C)[C@H](CC(=O)N1CCN(C(=O)c2cc3nc(-c4ccc(Cl)cc4)cc(C(C)(C)C)c3o2)C(C)(C)C1)C(=O)O [Example I-333] | 0.4 nM | 0.7 nM | 1800 nM | 2000 nM
Cc1cncc(N2CCN(C(=O)c3cc4nc(-c5ccc(Cl)c(F)c5)cc(C(C)(C)C)c4o3)C(C)(C)C2=O)n1 [Example I-334] | 1.4 nM | 1.6 nM | > 2000 nM | > 2000 nM
CC(C)(C)c1cc(-c2ccc(Cl)c(F)c2)nc2cc(C(=O)N3CCC(=O)NCC3(C)C)oc12 [Example I-335] | 91 nM | 28.5 nM | > 2000 nM | > 2000 nM
CC(C)(C)c1cc(-c2ccc(Cl)c(F)c2)nc2cc(C(=O)N3CCNC(=O)CC3(C)C)oc12 [Example I-336] | 6.3 nM | 9.6 nM | > 2000 nM | > 2000 nM
CC(C)(C)c1cc(-c2ccc(Cl)cc2)nc2cc(C(=O)N3CCN(C(=O)CC4(C(=O)O)CCC4)CC3(C)C)oc12 [Example I-337] | 0.4 nM | 0.9 nM | > 2000 nM | > 2000 nM
CC1(C)CCC(c2cc(C(C)(C)C)c3oc(C(=O)N4CCN(C(=O)CC5(C(=O)O)CCC5)CC4(C)C)cc3n2)CC1 [Example I-338] | 0.3 nM | 0.5 nM | > 2000 nM | > 2000 nM
Cc1ccnc(N2CCN(C(=O)c3cc4nc(C5CCC(C)(C)CC5)cc(C(C)(C)C)c4o3)C(C)(C)C2=O)n1 [Example I-339] | 1.3 nM | 3.1 nM | > 2000 nM | > 2000 nM
